According to patent publication US11965039B2, “Compstatin analogues and their medical uses” (priority 2018, dated 2024):
Where two headings read alike, the source gives them in different places. Positions of bridges follow the written chain, without caps; N, C: chain ends. Non-standard residues stand in square brackets, D forms with d. Residues, ends and D or L forms follow the SMILES beside them. Nva = CCC[C@H](N)C(=O)O; Sar = CNCC(=O)O

Tests used:
[1] = Solubility test at 10 mg/mL (visual inspection and light scattering); format: physicochemical; conditions: for Solubility, Condition 1: Acetate pH 4; for Solubility, Condition 2: Acetate pH 5; for Solubility, Condition 3: Phosphate pH 6; for Solubility, Condition 4: Phosphate pH 7; for Solubility, Condition 5: Phosphate pH 7.5
Description: The solubility of compounds was assessed by measuring light scattering over a pH interval from pH 4 to pH 7.5.
Compounds were dissolved in a stock solution of 20 mg/mL in H2O at pH 2.5 or pH 10. These stock solutions were diluted 1:1 with 200 mM buffered solution to reach a final solution of 10 mg/mL compound in 100 mM buffer. The 5 investigated conditions were (1) acetate pH 4.0, (2) acetate pH 5.0, (3) phosphate pH 6.0, (4) phosphate pH 7 and (5) phosphate pH 7.5.
Visual inspection included manually checking the 96 well plate for wells that are clear or non-clear. In addition to this a picture of the 96 well plate is taken.
Absorbance was measured at four wavelengths: 280 nm, 325 nm, 340 nm and 360 nm in an UV transparent 96 well microplate in a SpectraMax 190 microplate reader (Molecular Devices).
The criteria for this was a combination of visual inspection and light scattering not exceeding 0.1 AU, where values below 0.1 AU are good in visually clear samples.

[2] = tested on: classical complement pathway; test: In vitro haemolysis assay (inhibition of classical complement pathway); format: cell-based, human
Outline: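 Compound dilutions preincubated 15 min at room temperature with diluted human serum (titrated per batch for 70-90% maximal haemolysis), then antibody-sensitized sheep RBC (10^7/well) added for 30 min at 37 °C in Tris/casein buffer, pH 7.4. Stopped with EDTA; haemolysis read at 405 nm; IC50 by 4PL fit.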

[3] = human serum, sensitized sheep red blood cells, Table 3, given as upper bounds, read-out: IC50, inhibition of hemolysis
[4] = human serum, sensitized sheep red blood cells, Table 4, valine 3 vs isoleucine 3 pairs, read-out: CP hemolysis IC50
[5] = Table 5, different residues at position 3 of Ac-IC(1)XWQDWGEHRC(1)T-NH2, read-out: IC50, CP hemolysis

| Compound | Solubility, Condition 1 [1] | Solubility, Condition 2 [1] | Solubility, Condition 3 [1] | Solubility, Condition 4 [1] | Solubility, Condition 5 [1] | IC50 ([2]; human serum, sensitized sheep red blood cells, Table 2, read-out: CP hemolysis IC50) [µM] | IC50 [2, 3] [µM] | IC50 [2, 4] [µM] | IC50 [2, 5] [µM] |
| --- | --- | --- | --- | --- | --- | --- | --- | --- | --- |
| CC[C@H](C)[C@H](NC(C)=O)C(=O)N[C@H]1CSSC[C@@H](C(=O)N[C@H](C(N)=O)[C@@H](C)O)NC(=O)[C@H](CCCNC(=N)N)NC(=O)[C@H](Cc2c[nH]cn2)NC(=O)[C@H](C)NC(=O)CNC(=O)[C@H](Cc2c[nH]c3ccccc23)NC(=O)[C@H](CC(=O)O)NC(=O)[C@H](CCC(N)=O)NC(=O)[C@H](Cc2c[nH]c3ccccc23)NC(=O)[C@H]([C@@H](C)CC)NC1=O [Compound 1] (Ac-ICIWQDWGAHRCT-NH2; disulfide 2-12) | + (“+” denotes solubility at the given condition, as determined by UV absorbance being less than 0.1 AU at 340 nm and the sample being clear when manually inspected) | − (“−” denotes lack of solubility at the given condition, as UV absorbance at 340 nm exceeds 0.1 AU and/or it is visibly turbid or contains particles) | − (“−” denotes lack of solubility at the given condition, as UV absorbance at 340 nm exceeds 0.1 AU and/or it is visibly turbid or contains particles) | − (“−” denotes lack of solubility at the given condition, as UV absorbance at 340 nm exceeds 0.1 AU and/or it is visibly turbid or contains particles) | − (“−” denotes lack of solubility at the given condition, as UV absorbance at 340 nm exceeds 0.1 AU and/or it is visibly turbid or contains particles) | 0.15 | < 0.25 |  |  |
| CC[C@H](C)[C@H](NC(=O)[C@H](C)NC(=O)[C@H](CO)NC(=O)[C@H](CO)NC(=O)[C@H](CCC(=O)O)NC(C)=O)C(=O)N[C@H]1CSSC[C@@H](C(=O)N[C@H](C(N)=O)[C@@H](C)O)NC(=O)[C@H](CCCNC(=N)N)NC(=O)[C@H](Cc2c[nH]cn2)NC(=O)[C@H](CCC(=O)O)NC(=O)CNC(=O)[C@H](Cc2c[nH]c3ccccc23)NC(=O)[C@H](CC(=O)O)NC(=O)[C@H](CCC(N)=O)NC(=O)[C@H](Cc2c[nH]c3ccccc23)NC(=O)[C@H]([C@@H](C)CC)NC1=O [Compound 3] (Ac-ESSAICIWQDWGEHRCT-NH2; disulfide 6-16) | + (“+” denotes solubility at the given condition, as determined by UV absorbance being less than 0.1 AU at 340 nm and the sample being clear when manually inspected) | − (“−” denotes lack of solubility at the given condition, as UV absorbance at 340 nm exceeds 0.1 AU and/or it is visibly turbid or contains particles) | − (“−” denotes lack of solubility at the given condition, as UV absorbance at 340 nm exceeds 0.1 AU and/or it is visibly turbid or contains particles) | + (“+” denotes solubility at the given condition, as determined by UV absorbance being less than 0.1 AU at 340 nm and the sample being clear when manually inspected) | + (“+” denotes solubility at the given condition, as determined by UV absorbance being less than 0.1 AU at 340 nm and the sample being clear when manually inspected) |  | < 0.1 | 0.069 |  |
| CC[C@H](C)[C@H](NC(=O)[C@H](C)NC(=O)[C@H](CO)NC(=O)[C@H](CO)NC(=O)[C@H](CCC(=O)O)NC(C)=O)C(=O)N[C@H]1CSSC[C@@H](C(=O)N[C@H](C(=O)NCC(=O)N[C@@H](C)C(=O)N[C@@H](CCC(=O)O)C(=O)N[C@@H](CO)C(N)=O)[C@@H](C)O)NC(=O)[C@H](CCCNC(=N)N)NC(=O)[C@H](Cc2c[nH]cn2)NC(=O)[C@H](CCC(=O)O)NC(=O)CNC(=O)[C@H](Cc2c[nH]c3ccccc23)NC(=O)[C@H](CC(=O)O)NC(=O)[C@H](CCC(N)=O)NC(=O)[C@H](Cc2c[nH]c3ccccc23)NC(=O)[C@H]([C@@H](C)CC)NC1=O [Compound 14] (Ac-ESSAICIWQDWGEHRCTGAES-NH2; disulfide 6-16) | + (“+” denotes solubility at the given condition, as determined by UV absorbance being less than 0.1 AU at 340 nm and the sample being clear when manually inspected) | − (“−” denotes lack of solubility at the given condition, as UV absorbance at 340 nm exceeds 0.1 AU and/or it is visibly turbid or contains particles) | − (“−” denotes lack of solubility at the given condition, as UV absorbance at 340 nm exceeds 0.1 AU and/or it is visibly turbid or contains particles) | + (“+” denotes solubility at the given condition, as determined by UV absorbance being less than 0.1 AU at 340 nm and the sample being clear when manually inspected) | + (“+” denotes solubility at the given condition, as determined by UV absorbance being less than 0.1 AU at 340 nm and the sample being clear when manually inspected) |  | < 0.1 |  |  |
| CC[C@H](C)[C@H](NC(C)=O)C(=O)N[C@H]1CSSC[C@@H](C(=O)N[C@H](C(=O)NCC(=O)N[C@@H](C)C(=O)N[C@@H](CCC(=O)O)C(=O)N[C@@H](CO)C(N)=O)[C@@H](C)O)NC(=O)[C@H](CCCNC(=N)N)NC(=O)[C@H](Cc2c[nH]cn2)NC(=O)[C@H](CCC(=O)O)NC(=O)CNC(=O)[C@H](Cc2c[nH]c3ccccc23)NC(=O)[C@H](CC(=O)O)NC(=O)[C@H](CCC(N)=O)NC(=O)[C@H](Cc2c[nH]c3ccccc23)NC(=O)[C@H]([C@@H](C)CC)NC1=O [Compound 15] (Ac-ICIWQDWGEHRCTGAES-NH2; disulfide 2-12) | + (“+” denotes solubility at the given condition, as determined by UV absorbance being less than 0.1 AU at 340 nm and the sample being clear when manually inspected) | − (“−” denotes lack of solubility at the given condition, as UV absorbance at 340 nm exceeds 0.1 AU and/or it is visibly turbid or contains particles) | − (“−” denotes lack of solubility at the given condition, as UV absorbance at 340 nm exceeds 0.1 AU and/or it is visibly turbid or contains particles) | + (“+” denotes solubility at the given condition, as determined by UV absorbance being less than 0.1 AU at 340 nm and the sample being clear when manually inspected) | + (“+” denotes solubility at the given condition, as determined by UV absorbance being less than 0.1 AU at 340 nm and the sample being clear when manually inspected) |  | < 0.1 | 0.047 |  |
| CC[C@H](C)[C@H](NC(C)=O)C(=O)N[C@H]1CSSC[C@@H](C(=O)N[C@H](C(N)=O)[C@@H](C)O)NC(=O)[C@H](CO)NC(=O)[C@H](Cc2c[nH]cn2)NC(=O)[C@H](CCC(=O)O)NC(=O)CNC(=O)[C@H](Cc2c[nH]c3ccccc23)NC(=O)[C@H](CC(=O)O)NC(=O)[C@H](CCC(N)=O)NC(=O)[C@H](Cc2c[nH]c3ccccc23)NC(=O)[C@H](C(C)C)NC1=O [F, reference compound] (Ac-ICVWQDWGEHSCT-NH2; disulfide 2-12) |  |  |  |  |  |  |  | 0.54 |  |
| CC[C@H](C)[C@H](NC(C)=O)C(=O)N[C@H]1CSSC[C@@H](C(=O)N[C@@H](CO)C(N)=O)NC(=O)[C@H](CCCNC(=N)N)NC(=O)[C@H](Cc2c[nH]cn2)NC(=O)[C@H](CCC(=O)O)NC(=O)CNC(=O)[C@H](Cc2c[nH]c3ccccc23)NC(=O)[C@H](CC(=O)O)NC(=O)[C@H](CCC(N)=O)NC(=O)[C@H](Cc2c[nH]c3ccccc23)NC(=O)[C@H](C(C)C)NC1=O [G, reference compound] (Ac-ICVWQDWGEHRCS-NH2; disulfide 2-12) |  |  |  |  |  |  |  | 0.18 |  |
| CC[C@H](C)[C@H](NC(=O)[C@H](C)NC(=O)[C@H](CO)NC(=O)CNC(=O)[C@H](CCC(=O)O)NC(C)=O)C(=O)N[C@H]1CSSC[C@@H](C(=O)N(C)CC(=O)N[C@@H](CCC(=O)O)C(N)=O)NC(=O)[C@H](CCCNC(=N)N)NC(=O)[C@H](Cc2c[nH]cn2)NC(=O)[C@H](CCC(=O)O)NC(=O)CNC(=O)[C@H](Cc2c[nH]c3ccccc23)NC(=O)[C@H](CC(=O)O)NC(=O)[C@H](CCC(N)=O)NC(=O)[C@H](Cc2c[nH]c3ccccc23)NC(=O)[C@H](C(C)C)NC1=O [H, reference compound] (Ac-EGSAICVWQDWGEHRC[Sar]E-NH2; disulfide 6-16) |  |  |  |  |  |  |  | 0.33 |  |
| CC[C@H](C)[C@H](NC(C)=O)C(=O)N[C@H]1CSSC[C@@H](C(=O)N[C@H](C(=O)N[C@@H](CCC(=O)O)C(=O)NCC(=O)N[C@@H](CCC(=O)O)C(N)=O)[C@@H](C)O)NC(=O)[C@H](CCCNC(=N)N)NC(=O)[C@H](Cc2c[nH]cn2)NC(=O)[C@H](CCC(=O)O)NC(=O)CNC(=O)[C@H](Cc2c[nH]c3ccccc23)NC(=O)[C@H](CC(=O)O)NC(=O)[C@H](CCC(N)=O)NC(=O)[C@H](Cc2c[nH]c3ccccc23)NC(=O)[C@H](C(C)C)NC1=O [J, reference compound] (Ac-ICVWQDWGEHRCTEGE-NH2; disulfide 2-12) |  |  |  |  |  |  |  | 0.24 |  |
| CCC[C@@H]1NC(=O)[C@@H](NC(=O)[C@@H](NC(C)=O)[C@@H](C)CC)CSSC[C@@H](C(=O)N[C@H](C(N)=O)[C@@H](C)O)NC(=O)[C@H](CCCNC(=N)N)NC(=O)[C@H](Cc2c[nH]cn2)NC(=O)[C@H](CCC(=O)O)NC(=O)CNC(=O)[C@H](Cc2c[nH]c3ccccc23)NC(=O)[C@H](CC(=O)O)NC(=O)[C@H](CCC(N)=O)NC(=O)[C@H](Cc2c[nH]c3ccccc23)NC1=O [Norvaline, Ac-IC(1)XWQDWGEHRC(1)T-NH2, reference compound] (Ac-IC[Nva]WQDWGEHRCT-NH2; disulfide 2-12) |  |  |  |  |  |  |  |  | > 1 |
| Ac-IC(1)XWQDWGEHRC(1)T-NH2 [Beta-Homo-lsoleucine, reference compound] |  |  |  |  |  |  |  |  | > 10 |
